Measured values: patent publication US5652234A, “3-(7-oxo-1-aza-4-oxabicyclo[3.2.0]hept-3-yl)alanine derivative as antitumor agent” (Taiho Pharmaceutical Co., Limited, priority 1994, dated 1997)

How the values were obtained:
KB cells = assay: cells; type: cell-based; details: Homo sapiens, 72 h, read-out: Cytotoxicity TD50 KB
Method: In vitro KB cell cytoxocity assay was done by modification of the crystal violet assay (Grillis et al., Anal Biochem., 159, 109-113 (1986).
KB cells were cultivated in Eagles minimum essential medium supplemented with 10% calf serum and incubated at 37° C. in a humidified 5% CO2 atmosphere to prepare a cell stock. Cells were counted using a neubauer hemocytometer and seeded in 96 well plates at 100 μl of 3×10^4 cells/ml and cultured for one day. Test compounds were diluted and 100 .parallel.l of the solution was added in triplicate wells to give final concentration of 10, 5, 1, 0.5, 0.1, 0.05 and 0.01 μg/ml. Control wells were identical except that test compound was absent. These were cultured for three days. Then the cells were fixed with addition of 20 μl of 25% glutaraldehyde for 15 minutes, washed with water and dried. Then stained with 100 μl of 0.05% crystal violet for 15minutes, washed with water and dried. The wells are eluted with 100 μl of 0.05M NaH2 PO4 /ethanol (1:1 v/v) and read at OD540 on a multiscan spectrophotometer. Inhibition value of cell Growth was calculated based on optical density using the following equation; [formula] TD50 values were calculated from linear recression ines of the log-logit plot.

L1210 cells = assay: cells; type: cell-based; details: Mus musculus, L1210, 72 h, read-out: Cytotoxicity TD50 L-1210
Method: Vitro L1210 Cell Cytoxocity Assay
In vitro :L1210 cell cytotoxicity assay was done by the method of microculture tetrazolium assay (Alley et al., Cancer Research, 48, 589-601 (1988).
L1210 cells were cultivated in RPMI 1640 medium supplemented with 10% fetal calf serum and […] of 2-mercaptoethanol at 37° C. in humidified 5% CO2 atmosphere no prepare a cell stock. Cells were counted using neubauer hemocytometer and seed in 96 well plates at 100 μl of 0.5×10^4 cells per ml. The test compounds were diluted and 100 μl of the solution was added in triplicate wells to give the final concentration of 10, 5, 1, 0.5, 0.1, 0.05 and 0.01 μg/ml. Control wells were identical except :hat the test compound was absent. These were cultured for three days. Results were assayed using the microculture tetrazolium assay briefly. 50 μl of MTT formazoan working solution (1:5 v/v in culture medium) was added to each well and cultures were incubated at 37° C. for 4 hrs. Culture plates were centrifuged at low speed for 5 minutes. All but 10-20 μl of culture medium supernatant was removed by slow aspiration and […] and read at OD540 on a multiscan spectrophotometer. Inhibition value of cell growth was calculated based on optical density using the following equation; [formula] TD50 values were calculated from linear depression ines of the log-logit plot.

Sarcoma 180 = assay: In Vivo Antitumor Activity Against Sarcoma 180; design: species or system male ICR mice; details: s.c. - i.p., days 1, 5 and 9, tumor weight on day 12
Method: The compounds of general formula (I) were tested in vivo against Sarcoma 180 xenografted tumor to mice as illustrated herein after.
Sarcoma 180, 5×10^6 cells were inoculated by S.C. to male ICR mice (6 weeks old) on day 0. Drugs were administered on days 1,5 and 9. Mice were killed and tumor weight was measured on day 12 after transplantation. The percentage inhibition of tumor growth was calculated from the mean tumor weight of the treated group compared with that of the control group. Number of mice used in each group was between 6 to 10.

β-lactamase = details: natural metabolites isolated from Streptomyces culture; cited from earlier work
[1] = isolation to be done in the dark at low temperatures; cited from earlier work

Row | SMILES | IC50 (KB cells) [µg/mL] | IC50 (L1210 cells) [µg/mL] | % Inhibition in 12 days (tumor growth, tumor weight) (Sarcoma 180; 1.56 mg/kg/day) [%] | % Inhibition in 12 days (tumor growth, tumor weight) (Sarcoma 180; 3.13 mg/kg/day) [%] | β-lactamase inhibitory properties (β-lactamase) | chemical stability [1]
1 | O=C(N[C@@H](C[C@@H]1CN2C(=O)C[C@@H]2O1)C(=O)OC(c1ccccc1)c1ccccc1)OCc1ccccc1 (mixture of isomers) [10A, N-Benzyloxycarbonyl-3-[(3RS,5SR)-7-oxo-1-aza-4-oxabicyclo [3.2.0]hept-3-yl]-L-alanine diphenylmethyl ester] | 3.17 | 10 | – | – | – | –
2 | O=C(N[C@H](C[C@@H]1CN2C(=O)C[C@@H]2O1)C(=O)OC(c1ccccc1)c1ccccc1)OCc1ccccc1 (mixture of isomers) [10B, N-(benzyloxycarbonyl)-3-[(3RS,5SR)-7-oxo-1-aza-4-oxabicyclo[3.2.0]hept-3-yl]-D-alanine diphenylmethyl ester] | 1.78 | 7.5 | – | – | – | –
3 | N[C@@H](C[C@@H]1CN2C(=O)C[C@@H]2O1)C(=O)O (mixture of isomers) [compound 11, 3-[(3RS,5SR)-7-oxo-1-aza-4-oxabicyclo[3,2,0]hept-3-yl]-L-alanine] | 0.023 | 0.1 | 71.4 | 79.5 | – | –
4 | N[C@H](C[C@@H]1CN2C(=O)C[C@@H]2O1)C(=O)O (mixture of isomers) [compound 12, 3-[(3RS,5SR)-7-oxo-1-aza-4-oxabicyclo[3.2.0]hept-3-yl]-D-alanine] | 0.098 | – | – | – | – | –
5 | CC(C)C(N)C(=O)NC(C(=O)O)C(O)C1CN2C(=O)CC2O1 (centres unmarked) [G0069A] | – | – | – | – | None of the above metabolites exhibited β-lactamase inhibitory properties | chemicalyl unstable
